We go through ten compounds from PubChem BioAssay AID1627 (PCMD, 2009).

As a reminder, the IC50 is the concentration that gives 50% inhibition.

Inconclusive results are not listed. Calls of active or inactive are those of the source. The rule behind the calls is not given here.

The target of the experiment is Procathepsin L (Homo sapiens) (UniProt P07711). In words: CTSL inhibitor potency, thiol present – biochemical, cysteine present, dose response (AID 1627). Conditions: purified cathepsin L, fluorogenic substrate, with cysteine.
Sequence of Procathepsin L (Homo sapiens) (P07711 114-288 limits assumed): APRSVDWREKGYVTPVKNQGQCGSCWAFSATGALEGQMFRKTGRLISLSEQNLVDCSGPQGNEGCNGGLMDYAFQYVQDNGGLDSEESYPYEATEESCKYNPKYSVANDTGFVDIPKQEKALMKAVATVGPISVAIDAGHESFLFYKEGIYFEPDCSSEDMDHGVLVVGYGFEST
Sequence of Procathepsin L (Homo sapiens) (P07711 292-333 limits assumed): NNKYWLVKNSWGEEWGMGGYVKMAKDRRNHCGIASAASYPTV
Consider `CCCCc1[nH]nc2c1C1(C(=O)N(CC)c3ccccc31)C(C#N)=C(N)O2` (stereo not given), for which the IC50 is > 50 µM (inactive).
`N#CC1=C(N)Oc2c(sc3ccccc23)C1c1ccco1` (stereo not given): the IC50 is > 50 µM (inactive).
Consider `CN1CCc2c(sc3ncn4nc(-c5ccccc5O)nc4c23)C1`, for which the IC50 was 32 µM.
Regarding `CC1=C(C(=O)Nc2ccc(F)cc2)C(c2cccc(C)c2)n2nc(CCCO)nc2N1` (stereo not given), the IC50 was > 50 µM (inactive).
The same measure for `CC(=O)c1c(O)n(C)c(=S)n(-c2ccccc2)c1=O`: > 50 µM (inactive).
For `Nc1nc2n(n1)C1(CCCCC1)C1=C(CCCC1)N2` the value was > 50 µM (inactive); for `CCCCOc1ccc(C2C3CN(C(=O)OCC)CC=C3C(C#N)=C(N)C2(C#N)C#N)cc1OC` (stereo not given), > 50 µM (inactive); for `O=S(=O)(/N=S1/CC=CCN1S(=O)(=O)c1ccccc1)c1ccccc1` (stereo not given), > 50 µM (inactive).
For `COc1ccc(OC)c(C2C(C#N)=C(N)Oc3cc(C)n(Cc4ccccn4)c(=O)c32)c1` (stereo not given) the value was > 50 µM (inactive); for `CC(=O)Nc1nc2n(n1)C(c1ccc(F)cc1)C=C(c1ccccc1)N2` (stereo not given), > 50 µM (inactive).
